{"source": "paper PMC5067538", "about": "(Frontiers in Microbiology, 2016)", "key": {"[1]": {"target": "T1, PrbP/RpoB (two-hybrid, PrbP with RpoB 21-150) (Candidatus Liberibacter asiaticus, UniProt A0ABM5NE52)", "T1 construct": "gene WSI_01420", "settings": "E. coli TOP10, 240 min, 37 °C, inhibition of PrbP/RpoB interaction, indirect reporter"}, "PrbP (CLIBASIA_01510)": {"target": "T2, PrbP (CLIBASIA_01510) (Candidatus Liberibacter asiaticus, UniProt A0ABM5NE52)", "T2 construct": "gene WSI_01420", "settings": "2.5 µM PrbP, 1 ng biotin-labelled rplK promoter probe, 10 mM HEPES pH 7.5, 150 mM NaCl, 37 °C"}}, "note": "Where two headings read alike, the source gives them in different places.", "data": [{"smiles": "CN(C)Cc1c[nH]c2ccccc12", "note": "[Gramine]", "values": [{"measurement": "β-galactosidase activity^d (% decrease)", "setting": "[1]; 40 µM compound", "result": "15.3 ± 0.3", "unit": "%"}]}, {"smiles": "Cc1ncc([N+](=O)[O-])n1CCO", "note": "[Metronidazole]", "values": [{"measurement": "β-galactosidase activity^d (% decrease)", "setting": "[1]; 50 µM compound", "result": "53.7 ± 10", "unit": "%"}]}, {"smiles": "Cc1c(Cl)cccc1Nc1ccccc1C(=O)O", "note": "[Tolfenamic acid]", "values": [{"measurement": "β-galactosidase activity^d (% decrease)", "setting": "[1]; 25 µM compound", "result": "17.5 ± 5.3", "unit": "%"}, {"measurement": "complete disruption", "setting": "PrbP (CLIBASIA_01510)", "result": 350, "unit": "µM"}]}]}
